Several values for one entry are separate records, joined by “and”; a condition that tells them apart may be missing. Equal entries are not always repeated.
Columns and labels:
[1] = target: T1, TLR4 (Homo sapiens, UniProt O00206+Q9Y6Y9); experiment: Adhesion molecule expression on MM patient MSCs after TLR4 stimulation; assay type: cell-based
T1 construct: the TLR4 molecule is overexpressed both at the transcriptional level (mRNA) and at the protein level in the MM MSCs; endogenous in cells; host or cells: primary mesenchymal stromal cells (MSCs) of multiple myeloma patients
Source text: FIG. 3: Expression of different adhesion molecules involved in the interaction with MM plasma cells (CD49d, CD49e, CD54 and CD106) on the surface of MSCs of healthy subjects and patients with MM, stimulated or not with LPS. *p≤0.05**p≤0.01
FIG. 5: Expression of CD54 by MSCs from healthy donors or from patients with MM, whether stimulated or not with Hsp70. p*≤0.05
(§1) The inventors then studied the differential activation of TLR4 in the MSCs of healthy donors or MM patients. They analyzed the effect of stimulation by LPS, the TLR4 reference ligand widely described in the literature, on the expression of several adhesion molecules (CD49d/VLA-4, CD49e/VLA-5, CD54/ICAM-1 and CD106/VCAM-1) involved in the interaction between MSCs and malignant plasma cells. The level of expression (MFI: mean fluorescence intensity) of each molecule is shown in the histogram of FIG. 3.
In order to further investigate the role of TLR4 in the context of MM and to move closer to pathophysiology, the inventors stimulated MSCs with Hsp70, an endogenous ligand of TLR4 actively released in the MM microenvironment and secreted by the cell line of MM MOLP-6 (up to 200 ng/ml) (FIG. 4). In addition, this endogenous ligand has been described in the literature to have a chemoprotective role for MM malignant plasma cells (Nimmanapalli et al (2008) Br. Haematol 142: 551-561). […] Indeed Hsp-70 is a monomeric molecule and therefore induces a less important stimulation than LPS (multimeric). Nevertheless, once again, the MM MSCs respond better than the healthy MSCs.

[2] = target: T1, TLR4; experiment: Secretion of soluble factors (IGF-1, IL6) by MM patient MSCs after TLR4 stimulation; assay type: cell-based
Source text: (§2) FIG. 6: Secretion of IL6 by MSCs from healthy donors or from patients with MM, stimulated or not with LPS.
FIG. 7: Secretion of IL6 by MSCs of healthy donors or from MM patients, whether stimulated or not with Hsp70.
(§3) The inventors also evaluated the effect of TLR4 stimulation on the soluble IGF-1 and IL6 factors involved in the survival and proliferation of myeloma cells.

[3] = system: MOLP-6 cells; experiment: MOLP-6 myeloma cells cultured alone, treated with C34; assay type: cell-based, human; details: MOLP-6 alone, C34 1 μM or 10 μM
Method: (§4) FIG. 9: Number of myeloma cells (MOLP-6)after culture of MOLP-6 alone untreated (NT) or treated with 1 μM or 10 μM of C34 (TLR4 antagonist), or in coculture with a stroma of MSCs from healthy or MM donors, untreated or treated with 1 μM or 10 μM C34.
(§5) To evaluate the role of TLR4 in the MSC/myeloma cell interaction, the inventors used a specific TLR4 antagonist, the C34 compound, marketed by Tocris, and a stroma-dependent myeloma cell line, the MOLP-6 line. Some studies have used stroma-independent myeloma cell lines such as MM1S or RPM18226. In this study, in order to approach the pathology and mimic real interactions between MSC and plasma cells, the inventors used a stroma-dependent cell line for its proliferation. Indeed, during MM (in the establishment and maintenance phases of the disease), myeloma cells strongly adhere to the MSCs of the stroma, which gives chemoresistance and survival signals favoring the evolution of MM.
(§6) Then they treated the healthy MSCs and MM with the C34 before and in co-culture with the MOLP-6. With the healthy stroma, the C34 antagonist (at 1 and 10 μM) has no effect on the growth support of MOLP-6, whereas with the stroma of MM, the TLR4 antagonist affects growth of MOLP-6 cells at the two doses used (33% decrease, FIG. 9).

[4] = system: MOLP-6 cells; experiment: MOLP-6 growth in coculture with stroma of healthy donor MSCs; assay type: cell-based, human
Method: as §4, §5
as §6, with “9). […]” for “9).”
(§7) After 7 days of culture, they calculated the percent inhibition of plasmocyte growth (FIGS. 11 and 12).

[5] = system: MOLP-6 cells; experiment: MOLP-6 growth in coculture with stroma of MM patient MSCs; assay type: cell-based, human
Method: as §4, §5, §6
The inventors co-cultured MSCs from 4 healthy donors (H) or 5 patients suffering from MM (MYE) as well as stroma-dependent MOLP-6 plasma cells: • without treatment (NT) • in the presence of C34 alone at 1 μM (C34 1 μM), • in the presence of melphalan alone at 100 nM (Mel 100 nM), • in the presence of lenalidomide alone at 100 nM (Len 100 nM), • in the presence of a combination of C34 at 1 μM and melphalan at 100 nM (Mel 100 nM+C34 1 μM), or • in the presence of a combination of C34 at 1 μM and lenalidomide at 100 nM (Len 100 nM+C34 1 μM).
as §7

[6] = target: T1, TLR4; experiment: Adhesion molecule expression on healthy donor MSCs after TLR4 stimulation; assay type: cell-based
Source text: as §1, with “FIG. 3: Expression of different adhesion molecules involved in the interaction with MM plasma cells (CD49d, CD49e, CD54 and CD106) on the surface of MSCs of healthy subjects and patients with MM, stimulated or not with LPS. *p≤0.05**p≤0.01 FIG. 5: Expression of CD54 by MSCs from healthy donors or from patients with MM, whether stimulated or not with Hsp70. p*≤0.05 The inventors” for “The inventors”

[7] = target: T1, TLR4; experiment: Secretion of soluble factors (IGF-1, IL6) by healthy donor MSCs after TLR4 stimulation; assay type: cell-based
Source text: as §2, §3

[8] = MM MSCs, stimulation with Hsp70

T1 sequence (O00206 24-839): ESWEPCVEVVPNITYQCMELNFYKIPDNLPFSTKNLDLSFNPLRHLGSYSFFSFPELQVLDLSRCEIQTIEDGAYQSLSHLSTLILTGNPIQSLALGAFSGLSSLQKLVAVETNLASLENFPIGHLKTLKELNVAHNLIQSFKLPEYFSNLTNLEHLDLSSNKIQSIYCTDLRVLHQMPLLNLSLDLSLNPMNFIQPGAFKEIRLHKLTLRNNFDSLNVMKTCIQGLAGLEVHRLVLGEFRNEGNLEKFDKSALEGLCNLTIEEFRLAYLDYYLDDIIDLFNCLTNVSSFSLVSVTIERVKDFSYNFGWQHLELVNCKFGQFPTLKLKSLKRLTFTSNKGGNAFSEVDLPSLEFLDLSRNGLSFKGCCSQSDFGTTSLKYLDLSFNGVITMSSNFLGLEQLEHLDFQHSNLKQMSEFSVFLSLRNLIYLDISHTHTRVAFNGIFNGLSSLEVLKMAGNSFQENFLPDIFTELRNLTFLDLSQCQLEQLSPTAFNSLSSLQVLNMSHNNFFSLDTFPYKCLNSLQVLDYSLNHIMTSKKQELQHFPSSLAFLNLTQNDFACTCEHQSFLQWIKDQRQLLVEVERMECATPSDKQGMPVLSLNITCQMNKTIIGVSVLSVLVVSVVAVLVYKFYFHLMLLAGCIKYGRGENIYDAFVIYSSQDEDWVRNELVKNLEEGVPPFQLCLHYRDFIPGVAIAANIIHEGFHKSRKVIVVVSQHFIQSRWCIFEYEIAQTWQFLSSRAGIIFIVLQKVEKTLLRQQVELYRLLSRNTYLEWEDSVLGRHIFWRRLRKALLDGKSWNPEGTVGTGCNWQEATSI
T1 sequence (Q9Y6Y9 17-160 limits assumed): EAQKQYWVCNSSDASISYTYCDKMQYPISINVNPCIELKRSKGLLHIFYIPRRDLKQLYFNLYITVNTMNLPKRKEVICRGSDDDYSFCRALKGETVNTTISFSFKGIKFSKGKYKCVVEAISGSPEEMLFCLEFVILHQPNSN

## Hsp70: endogenous ligand of TLR4, chaperone heat shock protein 70
[1]; [8]
  CD54 expression: significantly increased
[2]; [8]
  IL6 secretion: increases

## CC(=O)N[C@H]1[C@@H](OC(C)C)O[C@H](COC(C)=O)[C@@H](OC(C)=O)[C@@H]1OC(C)=O [C34]
[3]
  direct effect on MOLP-6 cells (number of myeloma cells): did not directly affect
[4]; healthy MSC/MOLP-6 cocultures, C34 1 μM + melphalan or lenalidomide 100 nM, 7 days
  effect on inhibition of plasmocyte growth in the presence of chemotherapeutic agents: no significant synergistic effect
[4]; healthy stroma, C34 at 1 and 10 μM
  effect on the growth support of MOLP-6: no effect
[5]; MM MSC coculture, C34 1 μM + lenalidomide 100 nM, 7 days
  effect on inhibition of proliferation of MM plasmocytes in combination with lenalidomide: synergistic effect
[5]; MM MSC coculture, C34 1 μM + melphalan 100 nM, 7 days
  effect on inhibition of proliferation of MM plasmocytes in combination with melphalan: synergistic effect
[5]; stroma of MM, C34 at the two doses used (1 and 10 μM)
  decrease of growth of MOLP-6 cells: 33%

## lipopolysaccharide [LPS]
[6]; healthy MSC, LPS stimulation
  expression of CD49e: significantly increased
  expression of CD106: no effect
  expression of CD49d: no effect
[6]; healthy MSCs after LPS stimulation (basal 9.6)
  CD54 MFI: 148.7 and 149
[1]; MM MSC, LPS stimulation
  expression of CD49e: significantly increased
  expression of CD106: no effect
  expression of CD49d: no effect
[1]; MSCs of MM after LPS stimulation (basal 4.3)
  CD54 MFI: 215.9 and 216
[7]; healthy MSCs after LPS stimulation (unstimulated 0.02)
  secretion of IL6: 0.1 pg/cell
[7]; healthy MSCs, LPS stimulation
  IGF-1 secretion: no effect
[2]; MM MSCs, LPS stimulation
  IGF-1 secretion: no effect
[2]; MSCs of MM after LPS stimulation (unstimulated 0.08)
  secretion of IL6: 0.7 pg/cell

Source: patent US20220023325A1, “SPECIFIC TLR4 ANTAGONIST IN THE TREATMENT OF MULTIPLE MYELOMA” (Etablissement Français du Sang, priority 2016, published 2022)
